# Columns and labels:
# α-syn = assay: Yeast growth rescue from α-syn toxicity (dose-response); type: cell-based; conditions: relative to parent ABI1
# Protocol: For galactose-induction experiments, overnight cultures were grown in CSM/2% glucose to saturation and diluted 1:20 into CSM/2% raffinose for ˜2 generations. Cultures were then diluted into CSM/2% galactose at an optimum OD600 for the experiment (see ‘Growth assays’).
# (§1) Source plates were assembled in 96 well plates using multichannel pipettes to dilute rows in 1.6-fold serial dilutions of CSMGal. […] For α-syn, the final starting OD600 was 0.02. Drug concentration ranges varied depending on efficacy, growth inhibition, and solubility in media. A Tecan EvoFreedom liquid handling robot was then used to transfer culture from 96 to 384 well format with each well being represented four times. Final well volume was 35 μL. Plates were then incubated in humidified containers at 30° C. for either 24 or 40 hours. Plates were then read with a Tecan Saphire plate reader at OD600.
# (§2) Raw OD600 values were transformed to “Relative Growth” in WT cells or “% Maximum Rescue” in α-syn experiments. In WT cells, the well background was subtracted and all values were then normalized to 100% for the untreated condition. In α-syn rescue experiments, the well background was subtracted and the maximum rescue in the particular experiment was normalized to 100%.
# WT yeast = assay: Growth inhibition of wild-type yeast (dose-response); type: cell-based; conditions: relative to parent ABI1
# Protocol: as §1, §2
compound,measurement,setting,value
"Cc1cc(C)cc(-n2cnc3cc(C(=O)NCc4ccccc4Cl)ccc32)c1 [ABI3, N-(2-chlorobenzyl)-1-(3,5-dimethylphenyl)-1H-benzo[d]imidazole-5-carboxamide]",shift of concentrations for efficacy against α-syn,α-syn,higher
same,shift of concentrations for ability to inhibit growth,WT yeast,higher

# Source: patent US9790188B2, “Benzimidazole derivatives and uses thereof” (Whitehead Institute for Biomedical Research, priority 2013, dated 2017)
